The source made the active and inactive calls.
How the values were obtained:
[1] = Luminescence Cell-Based Dose Confirmation HTS to Identify Inhibitors of Platelet Dense Granule Release. [Related pubchem assays: 1663 (Primary HTS), 1678 (Summary of Project)]; assay type: functional
[2] = molecular target: Luciferin 4-monooxygenase (Photinus pyralis, UniProt P08659); assay: firefly luciferase enzyme inhibitors, dose response, biochemical, luminescence (AID 1891)
Cytochrome P450 2C19 = Cytochrome P450 2C19 (Homo sapiens, UniProt P33261); assay: Cytochrome panel assay with activity outcomes. Panel member name: p450-cyp2c19 Compounds with AC50 equal or less than 10 uM are considered active; assay type: functional
Sequence of Cytochrome P450 2C19 (P33261 whole entry): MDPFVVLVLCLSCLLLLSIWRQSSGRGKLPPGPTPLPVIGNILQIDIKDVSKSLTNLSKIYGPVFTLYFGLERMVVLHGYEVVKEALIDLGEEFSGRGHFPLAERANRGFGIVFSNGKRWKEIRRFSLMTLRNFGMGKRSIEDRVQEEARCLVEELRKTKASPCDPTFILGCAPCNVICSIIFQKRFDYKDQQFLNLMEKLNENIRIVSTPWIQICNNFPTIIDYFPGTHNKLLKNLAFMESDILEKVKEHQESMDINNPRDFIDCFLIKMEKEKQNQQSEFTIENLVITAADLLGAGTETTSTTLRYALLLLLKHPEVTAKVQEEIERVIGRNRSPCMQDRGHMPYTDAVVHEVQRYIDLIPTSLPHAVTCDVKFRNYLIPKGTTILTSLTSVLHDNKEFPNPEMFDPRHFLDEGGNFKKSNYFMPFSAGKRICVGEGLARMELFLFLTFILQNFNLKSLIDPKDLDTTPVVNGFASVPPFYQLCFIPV

Cytochrome P450 2C9 = Cytochrome P450 2C9 (Homo sapiens, UniProt P11712)
Sequence of Cytochrome P450 2C9 (P11712 whole entry): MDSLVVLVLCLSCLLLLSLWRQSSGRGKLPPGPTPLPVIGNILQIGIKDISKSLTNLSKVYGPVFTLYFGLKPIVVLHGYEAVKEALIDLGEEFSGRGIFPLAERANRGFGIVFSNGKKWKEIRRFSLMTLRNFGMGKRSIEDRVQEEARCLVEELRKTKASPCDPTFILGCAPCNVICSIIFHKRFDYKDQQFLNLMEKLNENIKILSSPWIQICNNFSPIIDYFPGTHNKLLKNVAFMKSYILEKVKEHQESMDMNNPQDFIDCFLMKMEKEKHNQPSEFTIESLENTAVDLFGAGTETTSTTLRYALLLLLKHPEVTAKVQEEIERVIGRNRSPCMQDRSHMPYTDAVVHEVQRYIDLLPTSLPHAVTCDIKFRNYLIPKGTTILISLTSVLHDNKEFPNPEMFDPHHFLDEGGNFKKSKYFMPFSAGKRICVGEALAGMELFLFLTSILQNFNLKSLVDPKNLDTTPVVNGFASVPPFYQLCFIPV

Cytochrome P450 3A4 = Cytochrome P450 3A4 (Homo sapiens, UniProt P08684);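 further: CYP3A4 tested as one member of a cytochrome P450 panel screen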
Sequence of Cytochrome P450 3A4 (P08684 whole entry): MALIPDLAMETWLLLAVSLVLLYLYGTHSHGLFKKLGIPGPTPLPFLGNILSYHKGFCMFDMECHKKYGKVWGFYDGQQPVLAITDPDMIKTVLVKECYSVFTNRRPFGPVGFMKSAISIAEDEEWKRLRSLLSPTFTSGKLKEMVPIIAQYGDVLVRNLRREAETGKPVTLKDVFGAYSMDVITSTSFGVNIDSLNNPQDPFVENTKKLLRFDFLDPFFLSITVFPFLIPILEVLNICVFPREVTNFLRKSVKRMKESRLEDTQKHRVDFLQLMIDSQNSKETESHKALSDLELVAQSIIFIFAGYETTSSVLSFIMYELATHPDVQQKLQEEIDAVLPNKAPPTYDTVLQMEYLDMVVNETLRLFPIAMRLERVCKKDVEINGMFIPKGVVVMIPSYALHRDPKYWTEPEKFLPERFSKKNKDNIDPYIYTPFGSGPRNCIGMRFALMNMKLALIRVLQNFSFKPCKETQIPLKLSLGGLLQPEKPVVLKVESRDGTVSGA

Cytochrome P450 2D6 = Cytochrome P450 2D6 (Homo sapiens, UniProt P10635);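 further: CYP2D6 member of a cytochrome P450 panel assay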
Sequence of Cytochrome P450 2D6 (P10635 whole entry): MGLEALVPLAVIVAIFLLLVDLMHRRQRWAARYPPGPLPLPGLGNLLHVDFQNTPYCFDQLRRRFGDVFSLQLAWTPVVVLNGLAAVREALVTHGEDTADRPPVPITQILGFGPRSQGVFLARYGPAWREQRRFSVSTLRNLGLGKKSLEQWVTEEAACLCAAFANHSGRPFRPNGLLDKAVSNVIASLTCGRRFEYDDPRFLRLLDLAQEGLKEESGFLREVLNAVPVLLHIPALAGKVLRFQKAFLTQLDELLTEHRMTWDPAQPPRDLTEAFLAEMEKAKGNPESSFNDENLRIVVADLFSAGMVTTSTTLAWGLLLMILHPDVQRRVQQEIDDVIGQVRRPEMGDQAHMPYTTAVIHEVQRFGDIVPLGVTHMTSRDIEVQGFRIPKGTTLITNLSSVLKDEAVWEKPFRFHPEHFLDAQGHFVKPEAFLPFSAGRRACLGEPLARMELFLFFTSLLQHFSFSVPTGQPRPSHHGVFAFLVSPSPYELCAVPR

[3] = molecular target: T1, Heat shock factor protein 1 (Mus musculus, UniProt P38532); assay: inhibition of MG132-induced HSE-luciferase signal, confirmation, cell-based, NIH3T3, luminescence, dose retest (AID 2382); assay type: functional;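 further: NIH3T3 fibroblasts with HSF1-driven luciferase reporter stressed by proteasome inhibitor MG132; luminescence from HSF1-driven luciferase expression after 8 hours of MG132 stress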
T1 sequence (P38532 whole entry): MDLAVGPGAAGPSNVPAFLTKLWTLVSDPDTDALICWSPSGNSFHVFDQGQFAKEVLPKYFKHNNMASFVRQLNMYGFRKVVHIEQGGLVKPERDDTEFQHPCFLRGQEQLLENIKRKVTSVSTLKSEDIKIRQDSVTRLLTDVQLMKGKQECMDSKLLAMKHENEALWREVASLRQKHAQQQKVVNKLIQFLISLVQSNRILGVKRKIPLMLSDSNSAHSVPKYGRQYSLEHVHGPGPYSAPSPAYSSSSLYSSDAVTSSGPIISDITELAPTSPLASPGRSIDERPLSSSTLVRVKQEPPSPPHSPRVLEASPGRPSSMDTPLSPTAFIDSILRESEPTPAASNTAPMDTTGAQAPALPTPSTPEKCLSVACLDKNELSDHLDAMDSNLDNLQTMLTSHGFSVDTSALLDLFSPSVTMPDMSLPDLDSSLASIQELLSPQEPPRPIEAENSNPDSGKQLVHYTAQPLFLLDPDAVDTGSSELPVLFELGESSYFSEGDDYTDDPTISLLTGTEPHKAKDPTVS

cells [4] = assay type: functional, cell-based
cells [5] = assay type: functional, cell-based; remark: listed apart in the source
Cytochrome P450 1A2 = molecular target: T2, Cytochrome P450 1A2 (Homo sapiens, UniProt P05177);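 further: PubChem cytochrome P450 panel assay, CYP1A2 panel member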
T2 sequence (P05177 whole entry): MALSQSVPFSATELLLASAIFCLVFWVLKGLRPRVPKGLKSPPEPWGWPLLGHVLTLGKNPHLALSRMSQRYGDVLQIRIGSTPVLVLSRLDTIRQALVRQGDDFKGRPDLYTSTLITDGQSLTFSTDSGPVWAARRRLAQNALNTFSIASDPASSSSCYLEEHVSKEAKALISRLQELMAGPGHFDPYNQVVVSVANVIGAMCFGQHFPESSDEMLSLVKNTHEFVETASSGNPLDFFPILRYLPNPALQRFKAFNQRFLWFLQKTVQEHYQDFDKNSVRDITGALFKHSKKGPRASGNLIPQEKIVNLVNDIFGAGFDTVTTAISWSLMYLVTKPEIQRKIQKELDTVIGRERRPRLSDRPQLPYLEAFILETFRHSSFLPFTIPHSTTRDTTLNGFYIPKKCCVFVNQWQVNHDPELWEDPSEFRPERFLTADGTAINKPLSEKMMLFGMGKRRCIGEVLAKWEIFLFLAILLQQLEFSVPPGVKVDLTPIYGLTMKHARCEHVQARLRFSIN

[6] = inhibitors of SNCA 5'UTR-driven reporter translation, confirmation, H4 neuroglioma cells, luminescence (AID 1988); assay type: functional, cell-based
[7] = Luminescence Cell-Based Dose Response HTS to Identify Inhibitors of 5'UTR Stem-Loop Driven Prion Protein mRNA Translation in H4 Neuroglioblastoma Cells. [Related pubchem assays: 1827 (Project Summary), 1813 (Primary HTS)]; assay type: functional
[8] = inhibitors of firefly luciferase expression or activity, dose response, H4 neuroglioma cells, luminescence (AID 1990); assay type: functional, cell-based

Sequence of Luciferin 4-monooxygenase (P08659 whole entry): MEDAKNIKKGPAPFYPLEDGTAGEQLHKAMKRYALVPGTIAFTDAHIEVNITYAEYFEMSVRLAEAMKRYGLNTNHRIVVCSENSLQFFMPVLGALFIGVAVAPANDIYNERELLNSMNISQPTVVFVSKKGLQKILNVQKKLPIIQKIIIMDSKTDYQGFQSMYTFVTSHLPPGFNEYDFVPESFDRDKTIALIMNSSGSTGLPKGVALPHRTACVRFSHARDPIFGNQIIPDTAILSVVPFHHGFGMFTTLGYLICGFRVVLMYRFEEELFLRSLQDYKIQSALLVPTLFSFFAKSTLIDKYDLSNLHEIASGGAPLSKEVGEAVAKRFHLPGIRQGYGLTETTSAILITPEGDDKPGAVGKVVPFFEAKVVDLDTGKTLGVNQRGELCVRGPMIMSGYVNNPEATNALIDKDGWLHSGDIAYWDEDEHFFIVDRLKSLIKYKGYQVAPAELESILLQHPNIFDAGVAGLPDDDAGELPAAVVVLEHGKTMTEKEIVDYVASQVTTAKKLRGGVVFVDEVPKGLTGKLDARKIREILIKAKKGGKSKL

Cc1cccc(Oc2nc3ccccn3c(=O)c2/C=C(\C#N)C(=O)NC2CCS(=O)(=O)C2)c1C (stereo unspecified)
EC50 [1]: 4.44 µM (active)
EC50 [2]: > 112 µM (not active)

CCc1ccccc1N(CC(=O)N/N=C/c1ccc(OC(=O)OC)c(OC)c1)S(C)(=O)=O
EC50 [1]: 43.7 µM (active)
EC50 [2]: > 112 µM (not active)

CN1CCN(C2CC(=O)N(Cc3ccc(N4CCCC4=O)cc3)C2=O)CC1 (stereo unspecified)
AC50 (Cytochrome P450 2C19): inconclusive

Cc1cccc(C)c1NC(=O)C[S+]([O-])CC(=O)NCCCc1ccccc1 (stereo unspecified)
AC50 (Cytochrome P450 2C9): 22.4 µM (inconclusive)
AC50 (Cytochrome P450 3A4): 14.1 µM (inconclusive)

c1cc(CNCCCN2CCOCC2)ccn1
AC50 (Cytochrome P450 3A4): 31.6 µM (inconclusive)
AC50 (Cytochrome P450 2D6): 15.8 µM (inconclusive)

CCOC(=O)C1CCN(Cc2cnc(Oc3ccc(OC)cc3)s2)CC1
AC50 (Cytochrome P450 2D6): 22.4 µM (inconclusive)

OCC[C@@H]1C[C@@H](O)[C@H](O)[C@@]2(Cc3ccccc3CO2)O1
EC50 [3]: > 195 µM (not active)

CCS(=O)(=O)c1ccc2c(c1)N(S(C)(=O)=O)CC(C(=O)NCCOC)O2 (stereo unspecified)
AC50 (Cytochrome P450 2C9): 35.5 µM (inconclusive)

Cc1noc(C)c1-c1nc(NCCN2CCOCC2)c2ccccc2n1
AC50 (Cytochrome P450 2D6): 25.1 µM (inconclusive)

CCn1c(N2CCC(Cc3ccccc3)CC2)nc2c1c(=O)[nH]c(=O)n2C
EC50 (cells [4]): > 350 µM (not active)
EC50 (cells [5]): > 350 µM (not active)

COc1ccc(/C=C2\CCc3c2nc2ccccc2c3C(=O)O)cc1OC
EC50 [1]: 73.5 µM (active)
EC50 [2]: 6.42 µM (active)

Cc1cc(C(=O)NCc2ccccc2)no1
AC50 (Cytochrome P450 2D6): 20 µM (inconclusive)
AC50 (Cytochrome P450 1A2): 0.398 µM (inconclusive)
AC50 (Cytochrome P450 2C19; read-out: AC50): 28.2 µM (inconclusive)

CN(C)c1ccc(/C=C2/C(=O)Nc3ccccc32)cc1
AC50 (Cytochrome P450 2C9): 39.8 µM (inconclusive)

CN(Cc1ccco1)c1ccnc(-c2cccc(C#N)c2)n1
AC50 (Cytochrome P450 2D6): 20 µM (inconclusive)

O=C(CSc1nnnn1C1CCCC1)Nc1ccc(F)cc1
AC50 (Cytochrome P450 2C9): 31.6 µM (inconclusive)
AC50 (Cytochrome P450 1A2): 25.1 µM (inconclusive)

C=CCn1c2ccccc2c2nnc(SCC(=O)O)nc21
EC50 [3]: > 195 µM (not active)

CC1CCC(C(=O)NC(C(=O)N2CCC(N3CCCCC3)CC2)C(C)C)CC1 (stereo unspecified)
AC50 (Cytochrome P450 3A4): 14.1 µM (inconclusive)
AC50 (Cytochrome P450 2C19; read-out: AC50): 8.91 µM (inconclusive)

C/C(=N\Nc1nc(-c2ccccc2)cs1)c1cccs1
EC50 [3]: > 195 µM (not active)

CC[C@@H]1CC(=O)N(SC[C@H](N)C(=O)O)C1=O
AC50 (Cytochrome P450 2C19): inconclusive

Fc1ccc(Nc2ccnc(-c3ccccc3C(F)(F)F)n2)cc1
AC50 (Cytochrome P450 2D6): 39.8 µM (inconclusive)

Cc1ccc(CNC(=O)c2cnc3ccccc3n2)cc1
EC50 [1]: > 112 µM (not active)
EC50 [2]: > 112 µM (not active)

Cc1onc(-c2c(F)cccc2Cl)c1C(=O)NCC1COc2ccccc2O1 (stereo unspecified)
EC50 [1]: > 112 µM (not active)
EC50 [2]: > 112 µM (not active)

COc1ccc(CNc2nc(-c3cccc(NS(C)(=O)=O)c3)nc3ccccc23)c(OC)c1
AC50 (Cytochrome P450 2D6): 12.6 µM (inconclusive)

Cc1ccc(S(=O)(=O)Nc2cccnc2)c(C)c1C
EC50 [3]: > 195 µM (not active)

CCOC(=O)N1CCC(Nc2ncnc3c2cnn3-c2ccc(Cl)cc2)CC1
EC50 [3]: 89.4 µM (active)

COc1ccc(CN2CCN(S(=O)(=O)c3ccccc3)CC2)cc1Br
EC50 [6]: > 120 µM (not active)
EC50 [7]: > 120 µM (not active)
EC50 [8]: > 120 µM (not active)
EC50 [3]: > 195 µM (not active)
